ChEMBL document CHEMBL1201862, “PubChem BioAssay data set” (2004)
Activity calls are given as the source filed them.

How the values were obtained:
[1] = Fluorescence polarization-based biochemical high throughput dose response assay for activators of the Protein Kinase A-R1A (PKA-R1A) complex. [Related pubchem assays (depositor defined):AID504704, AID504707, AID504799, AID504800]
[2] = Fluorescence polarization-based biochemical high throughput dose response assay for activators of the Protein Kinase A-R2B (PKA-R2B) complex. [Related pubchem assays (depositor defined):AID504700, AID504704, AID504796, AID504797]
HEK293 [3] = assay: cells; assay type: functional, cell-based; details: Homo sapiens
[4] = molecular target: Nuclear receptor subfamily 0 group B member 1 (Homo sapiens, UniProt P51843); assay: Luminescence-based cell-based high throughput dose response assay for inhibitors of the orphan nuclear receptor subfamily 0, group B, member 1 (DAX1; NR0B1). [Related pubchem assays (depositor defined):AID504766, AID504790]; assay type: functional
CHO = assay: cytotoxicity in TLR9-MyD88 CHO cells, dose response, cytotoxicity control for TLR9-MyD88 binding inhibitor project, cell-based, luminescence (AID 588339); assay type: functional, hamster; details: Cricetulus griseus;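 also: CHO cells stably coexpressing TLR9 and MyD88 fusions from primary screen; compound exposure lasted 48 hours before viability readout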
A-375 [5] = assay: A375 melanoma cell viability reduction, dose response, counter-screen for MITF modulator project, cherry-pick samples, set 2 (AID 540335); assay type: functional, cell-based; details: Homo sapiens
[6] = molecular target: T1, Microphthalmia-associated transcription factor (Homo sapiens, UniProt O75030); assay: TRPM1 promoter luciferase signal decrease, dose response, MITF inhibitor project, cell-based, SK-MEL-5, cherry-picked, set 3 (AID 493073); assay type: functional
T1 sequence (O75030 whole entry): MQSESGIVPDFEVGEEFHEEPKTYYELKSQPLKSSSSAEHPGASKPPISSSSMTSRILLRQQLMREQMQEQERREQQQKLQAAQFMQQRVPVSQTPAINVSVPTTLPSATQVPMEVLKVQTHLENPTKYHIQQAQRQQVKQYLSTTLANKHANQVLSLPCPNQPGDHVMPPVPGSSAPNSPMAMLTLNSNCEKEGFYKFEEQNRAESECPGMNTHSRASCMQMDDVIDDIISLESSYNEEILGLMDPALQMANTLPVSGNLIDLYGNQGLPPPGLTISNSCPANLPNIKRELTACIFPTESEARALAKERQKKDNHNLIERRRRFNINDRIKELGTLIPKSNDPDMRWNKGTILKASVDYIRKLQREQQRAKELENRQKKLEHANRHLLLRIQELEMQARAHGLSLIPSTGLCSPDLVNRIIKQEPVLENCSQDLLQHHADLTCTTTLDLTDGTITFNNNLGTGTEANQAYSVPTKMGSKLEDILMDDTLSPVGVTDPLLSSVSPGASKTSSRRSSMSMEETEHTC

Beta Lactamase = Beta Lactamase (Pseudomonas aeruginosa, UniProt Q932Y6); assay: beta-lactamase reporter inhibitor potency, dose response, artefact control for TLR9-MyD88 binding inhibitor project, BLA reporter cells, FRET fluorescence (AID 588341); assay type: cell-based;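 also: cell based assay in CHO-K1 cells stably expressing beta-lactamase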
A-375 [7] = assay: MITF: Counter assay: A375 proliferation Measured in Cell-Based System Using Plate Reader - 2084-03_Inhibitor_Dose_DryPowder_Activity. [Related pubchem assays (depositor defined):AID488944]; assay type: functional; details: Homo sapiens
[8] = THP-1 cell cytotoxicity, dose response, cytotoxicity control for non-replicating M. tuberculosis project (AID 489025); assay type: functional
[9] = HepG2 cell cytotoxicity, dose response, cytotoxicity control for Shn3 inhibitor project, CellTiter-Glo, cherry-picked (AID 624134); assay type: functional, cell-based
[10] = control 3'UTR Renilla luciferase suppression, dose response, counter-screen for Shn3 inhibitor project, cell-based, Clone20-Shn3RL, cherry-picked (AID 624133); assay type: functional
[11] = molecular target: T2, Heat shock factor protein 1 (Mus musculus, UniProt P38532); assay: HSF1 potentiators in luciferase reporter cells, confirmation, cell-based, NIH3T3, luminescence, dose retest (AID 435004); assay type: functional;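 also: stress induced by proteasome inhibitor MG132 added 30 min after compound; luciferase reporter driven by HSF1 response element in NIH3T3 cells; actives raise luminescence as potentiators of the MG132 stress response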
T2 sequence (P38532 whole entry): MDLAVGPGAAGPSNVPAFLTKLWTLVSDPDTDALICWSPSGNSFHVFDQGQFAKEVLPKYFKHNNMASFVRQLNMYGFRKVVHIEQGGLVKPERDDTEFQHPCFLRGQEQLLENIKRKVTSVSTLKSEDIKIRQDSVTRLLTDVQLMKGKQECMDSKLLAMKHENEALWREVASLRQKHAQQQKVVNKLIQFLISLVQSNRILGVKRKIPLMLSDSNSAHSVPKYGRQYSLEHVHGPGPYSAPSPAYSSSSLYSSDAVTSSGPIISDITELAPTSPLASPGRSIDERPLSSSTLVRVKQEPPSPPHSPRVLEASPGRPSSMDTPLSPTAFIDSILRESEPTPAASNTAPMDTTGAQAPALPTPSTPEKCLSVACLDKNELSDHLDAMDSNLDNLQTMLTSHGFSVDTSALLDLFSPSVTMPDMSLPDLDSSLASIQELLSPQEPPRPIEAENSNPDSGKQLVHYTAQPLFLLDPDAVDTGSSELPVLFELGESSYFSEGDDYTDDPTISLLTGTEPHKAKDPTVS

cells [12] = assay type: functional
[13] = Shn3 3'UTR reporter inhibitors, dose response, cell-based, Clone20 osteoblasts, firefly luciferase, cherry-picked (AID 624132); assay type: functional;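 also: firefly luciferase luminescence from reporter carrying the Shn3 3'UTR in osteoblasts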
INS1 [14] = assay: beta cell apoptosis inhibitors, cytokine rescue, dose response, luminescence, retest (AID 449756); assay type: functional, cell-based; details: Rattus norvegicus;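 also: cell death triggered by IL-1 beta plus TNF-alpha plus IFN-gamma mixture; protective hits raise ATP signal compared with cytokine alone wells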
[15] = molecular target: Heat shock protein HSP 90-alpha (Homo sapiens, UniProt P07900); assay type: functional, organism-based
INS1 [16] = assay: protection from cytokine-induced mitochondrial depolarization, dose response, cell-based, INS-1E, JC-1 fluorescence ratio, dry powder (AID 488931); assay type: functional; details: Rattus norvegicus
[17] = inhibitors of firefly luciferase expression or activity, dose response, H4 neuroglioma cells, luminescence (AID 1990); assay type: functional, cell-based
cells [18] = assay type: functional, cell-based
[19] = molecular target: Serine/threonine-protein phosphatase (Candida dubliniensis (strain CD36 / CBS 7987 / NCPF 3949 / NRRLY-17841) (Yeast), UniProt B9W6M3); assay: calcineurin pathway inhibitors in yeast reporter, dose response, S. cerevisiae, CDRE-lacZ, luminescence, secondary (AID 2388); assay type: functional, cell-based;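 also: yeast reporter cells carrying a calcineurin-responsive lacZ construct stimulated with calcium chloride; luminescent beta-galactosidase reporter signal in whole cells rather than isolated phosphatase activity; potency for inhibition where a drop in reporter signal means calcineurin blockade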
[20] = NIH-3T3 fibroblast cytotoxicity, dose response, cytotoxicity control, cell-based, fluorescence, Alamar Blue, secondary assay (AID 2327); assay type: functional;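 also: NIH-3T3 mouse fibroblasts cultured with fluconazole at 8 µg/mL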
[21] = test system: Streptococcus sp. 'group A'; assay: growth inhibition of control SK(-) GAS strain, dose response, counter-screen for streptokinase expression inhibitor project, luminescence, kanamycin, BacTiterGlo, confirmation (AID 1900); assay type: functional, organism-based
[22] = C. albicans growth with fluconazole, confirmation, fluorescence, retest (AID 2467); assay type: functional, cell-based
[23] = molecular target: ATP-dependent molecular chaperone HSP82 (Candida albicans (strain WO-1) (Yeast), UniProt C4YTQ8); assay: loss of DOC-induced GRE-beta-galactosidase reporter signal, dose response, Hsp90 inhibitor project, S. cerevisiae, luminescence (AID 2400); assay type: functional, cell-based;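 also: beta-galactosidase luminescence from glucocorticoid response element reporter as proxy for Hsp90 function; inhibitor potency where signal loss means Hsp90 inhibition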
Streptococcus = assay: Group A Streptococcus viability loss, dose response, counter-screen for streptokinase expression inhibitor project, luminescence, BacTiterGlo (AID 1915); assay type: functional, organism-based;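 also: potency for reduction of bacterial viability or growth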
HEK293 [24] = assay: inhibitors of LMP1-driven NF-kB reporter, dose response, cell-based, HEK293, luciferase, cherry-pick (AID 588343); assay type: functional; details: Homo sapiens
cells [25] = assay type: functional, cell-based; remark: listed apart in the source
Streptokinase A = molecular target: T3, Streptokinase A (Streptococcus pyogenes serotype M1, UniProt P10520); assay: S. pyogenes streptokinase expression inhibitors, potency, dose response, plasminogen activation absorbance, OD405 (AID 1914); assay type: functional, Streptococcus pyogenes M1 GAS;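 also: secreted streptokinase activity via plasminogen activation per viability signal from cell pellet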
T3 sequence (P10520 whole entry): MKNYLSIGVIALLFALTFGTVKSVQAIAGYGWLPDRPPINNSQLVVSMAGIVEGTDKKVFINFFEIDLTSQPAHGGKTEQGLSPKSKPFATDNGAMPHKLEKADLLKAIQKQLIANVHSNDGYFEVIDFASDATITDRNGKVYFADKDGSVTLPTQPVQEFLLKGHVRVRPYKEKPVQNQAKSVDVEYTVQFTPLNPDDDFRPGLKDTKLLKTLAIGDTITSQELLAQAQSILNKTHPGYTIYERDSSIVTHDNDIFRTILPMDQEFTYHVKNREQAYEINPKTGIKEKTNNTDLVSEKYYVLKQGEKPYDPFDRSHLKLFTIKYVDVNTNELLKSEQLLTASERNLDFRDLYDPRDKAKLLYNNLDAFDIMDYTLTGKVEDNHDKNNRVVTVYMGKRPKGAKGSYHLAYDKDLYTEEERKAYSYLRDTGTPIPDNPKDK

[26] = inhibitors of SNCA 5'UTR-driven reporter translation, confirmation, H4 neuroglioma cells, luminescence (AID 1988); assay type: functional, cell-based
[27] = molecular target: T4, Rac GTPase-activating protein 1 (Homo sapiens, UniProt Q9H0H5); assay: MgcRacGAP GTPase-activating activity inhibitors, confirmation, biochemical, ADP Hunter fluorescence, primary and confirmatory (AID 624330); assay type: functional
T4 sequence (Q9H0H5 whole entry): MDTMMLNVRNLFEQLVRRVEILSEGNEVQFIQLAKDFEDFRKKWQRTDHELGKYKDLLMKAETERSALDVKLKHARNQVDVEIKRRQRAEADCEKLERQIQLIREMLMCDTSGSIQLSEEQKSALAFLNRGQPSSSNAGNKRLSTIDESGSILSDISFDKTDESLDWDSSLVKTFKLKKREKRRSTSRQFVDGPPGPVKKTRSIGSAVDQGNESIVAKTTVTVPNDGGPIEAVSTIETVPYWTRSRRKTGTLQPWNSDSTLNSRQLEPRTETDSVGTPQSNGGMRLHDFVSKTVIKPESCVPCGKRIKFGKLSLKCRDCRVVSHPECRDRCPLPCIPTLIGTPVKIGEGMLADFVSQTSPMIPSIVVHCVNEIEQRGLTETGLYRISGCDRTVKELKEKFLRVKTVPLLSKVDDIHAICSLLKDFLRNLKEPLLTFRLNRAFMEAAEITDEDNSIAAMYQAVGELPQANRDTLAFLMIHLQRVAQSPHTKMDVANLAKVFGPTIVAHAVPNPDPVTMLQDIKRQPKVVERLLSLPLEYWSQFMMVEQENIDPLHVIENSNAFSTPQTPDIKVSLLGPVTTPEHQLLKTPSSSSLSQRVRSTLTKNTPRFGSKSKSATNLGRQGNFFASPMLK

[28] = Luminescence Cell-Based Dose Response HTS to Identify Inhibitors of 5'UTR Stem-Loop Driven Prion Protein mRNA Translation in H4 Neuroglioblastoma Cells. [Related pubchem assays: 1827 (Project Summary), 1813 (Primary HTS)]; assay type: functional

Chain of Serine/threonine-protein phosphatase (B9W6M3 whole entry): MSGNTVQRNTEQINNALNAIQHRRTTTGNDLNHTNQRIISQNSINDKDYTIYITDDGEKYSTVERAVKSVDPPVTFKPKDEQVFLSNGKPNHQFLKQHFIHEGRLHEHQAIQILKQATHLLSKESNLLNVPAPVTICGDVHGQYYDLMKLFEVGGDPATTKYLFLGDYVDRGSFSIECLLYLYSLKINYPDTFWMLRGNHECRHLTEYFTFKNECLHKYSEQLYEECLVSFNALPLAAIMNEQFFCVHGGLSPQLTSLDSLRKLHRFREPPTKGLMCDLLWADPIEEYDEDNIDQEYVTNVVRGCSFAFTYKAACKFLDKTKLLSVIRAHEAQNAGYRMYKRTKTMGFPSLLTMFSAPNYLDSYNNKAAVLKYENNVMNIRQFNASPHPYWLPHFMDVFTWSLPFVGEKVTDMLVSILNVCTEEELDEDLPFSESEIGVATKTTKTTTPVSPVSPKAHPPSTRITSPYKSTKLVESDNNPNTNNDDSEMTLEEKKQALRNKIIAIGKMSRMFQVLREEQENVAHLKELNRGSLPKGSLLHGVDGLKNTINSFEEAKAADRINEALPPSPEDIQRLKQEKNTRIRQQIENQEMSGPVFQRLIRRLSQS
Chain of ATP-dependent molecular chaperone HSP82 (C4YTQ8 whole entry): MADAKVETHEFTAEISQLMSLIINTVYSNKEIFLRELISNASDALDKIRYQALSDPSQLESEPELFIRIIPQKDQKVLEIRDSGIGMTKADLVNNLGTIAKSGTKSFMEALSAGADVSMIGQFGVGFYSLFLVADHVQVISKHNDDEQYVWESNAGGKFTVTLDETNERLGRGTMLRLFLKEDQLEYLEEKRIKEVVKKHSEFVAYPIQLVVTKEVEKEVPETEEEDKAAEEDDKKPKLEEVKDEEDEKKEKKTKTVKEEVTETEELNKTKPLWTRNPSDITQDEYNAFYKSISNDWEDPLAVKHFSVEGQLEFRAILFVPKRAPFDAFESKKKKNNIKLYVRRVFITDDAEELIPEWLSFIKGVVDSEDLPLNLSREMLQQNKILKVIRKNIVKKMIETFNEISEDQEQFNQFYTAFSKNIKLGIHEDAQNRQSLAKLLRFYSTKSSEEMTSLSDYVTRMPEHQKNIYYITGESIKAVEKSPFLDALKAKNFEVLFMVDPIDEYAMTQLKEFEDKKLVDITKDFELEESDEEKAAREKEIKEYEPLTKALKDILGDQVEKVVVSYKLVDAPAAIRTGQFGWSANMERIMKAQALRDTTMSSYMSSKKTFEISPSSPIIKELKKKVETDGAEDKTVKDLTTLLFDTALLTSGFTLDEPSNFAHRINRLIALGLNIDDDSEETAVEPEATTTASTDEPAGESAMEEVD
Chain of Nuclear receptor subfamily 0 group B member 1 (P51843 whole entry, the tested form may be a part): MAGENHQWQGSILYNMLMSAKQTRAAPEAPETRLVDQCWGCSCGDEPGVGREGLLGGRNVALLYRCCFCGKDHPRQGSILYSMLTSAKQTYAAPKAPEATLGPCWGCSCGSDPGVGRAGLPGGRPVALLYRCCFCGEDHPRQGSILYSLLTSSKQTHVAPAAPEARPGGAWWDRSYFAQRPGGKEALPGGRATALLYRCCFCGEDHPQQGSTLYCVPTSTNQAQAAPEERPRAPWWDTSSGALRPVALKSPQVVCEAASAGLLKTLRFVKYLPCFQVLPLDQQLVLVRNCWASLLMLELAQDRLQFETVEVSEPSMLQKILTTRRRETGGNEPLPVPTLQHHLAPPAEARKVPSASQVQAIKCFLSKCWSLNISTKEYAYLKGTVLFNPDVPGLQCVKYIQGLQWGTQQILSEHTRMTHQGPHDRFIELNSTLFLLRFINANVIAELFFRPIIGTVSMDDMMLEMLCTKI
Chain of Beta Lactamase (Q932Y6 whole entry): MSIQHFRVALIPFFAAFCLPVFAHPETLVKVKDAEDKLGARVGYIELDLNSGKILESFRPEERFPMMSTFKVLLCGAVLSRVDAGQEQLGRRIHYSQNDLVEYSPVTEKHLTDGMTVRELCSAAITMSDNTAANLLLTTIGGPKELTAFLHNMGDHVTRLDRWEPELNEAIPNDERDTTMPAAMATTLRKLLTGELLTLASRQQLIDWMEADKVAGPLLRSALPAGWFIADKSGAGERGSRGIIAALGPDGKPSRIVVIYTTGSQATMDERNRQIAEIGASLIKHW

CCCC(=O)Nc1ncnc2c1ncn2[C@@H]1O[C@@H]2COP(=O)(O)O[C@H]2[C@H]1OC(=O)CCC
EC50 [1]: 4.48 µM (active) | EC50 [2]: 5.38 µM (active)

Cc1cnc(C(=O)OCC(=O)NCCCc2ccccc2)cn1
IC50 (HEK293 [3]): > 67.5 µM (inactive) | IC50 [4]: > 67.5 µM (inactive)

CCOC(=O)COc1ccc2ccccc2c1/C=C/[N+](=O)[O-]
IC50 (CHO): 2.72 µM (active) | AC50 (A-375 [5]): > 35 µM (active) | AC50 [6]: 8.17 µM (active) | IC50 (Beta Lactamase): 30.5 µM (inactive) | AC50 (A-375 [7]): > 35 µM (active) | CC50 [8]: 19.1 µM (active) | AC50 [9]: 20.9 µM (active) | AC50 [10]: 12.9 µM (active) | EC50 [11]: 3.33 µM (inconclusive) | IC50 (cells [12]): 2.81 µM (active) | AC50 [13]: 5.2 µM (active) | AC50 (INS1 [14]): > 60 µM (inactive) | AC50 [15]: 4.28 µM (active)

C[C@@H]1CN([C@@H](C)CO)C(=O)c2cccc(NC(=O)Nc3cccc4ccccc34)c2O[C@H]1CN(C)S(C)(=O)=O
AC50 (INS1 [16]): > 195 µM (inactive)

O=C(N/N=C/c1sc2ccccc2c1O)c1cccc2ccccc12
EC50 [17]: 10.6 µM (active) | EC50 (cells [18]): > 350 µM (not active) | EC50 [19]: > 180 µM (inactive) | EC50 [20]: > 160 µM (inactive) | EC50 [21]: 3.44 µM (active) | EC50 [22]: 0.738 µM (active) | EC50 [23]: 9.14 µM (active) | EC50 (Streptococcus): 12.4 µM (active) | AC50 (HEK293 [24]): 5.14 µM (active) | EC50 (cells [25]): 12.5 µM (active) | EC50 (Streptokinase A): > 150 µM (not active) | EC50 [26]: 9 µM (active) | IC50 [27]: 52.9 µM (active) | EC50 [28]: 10.4 µM (active) | AC50 (INS1 [14]): 1.1 µM (active) | AC50 [15]: 14 µM (active)
